{
  "source": "patent US20170140533A1",
  "about": "“SYSTEM AND METHOD FOR AUTOMATED DETECTION AND MONITORING OF DYSPLASIA AND ADMINISTRATION OF IMMUNOTHERAPY AND CHEMOTHERAPY” (VISIONGATE, INC., priority 2015, published 2017)",
  "origin": "cited, not measured here",
  "key": {"T cells": {"system": "T cells", "details": "in vitro"}, "[1]": {"system": "immune response in SSc patients"}},
  "data": [
    {"smiles": "CC#CCC(C)[C@H](O)/C=C/[C@@H]1[C@H]2C/C(=C/CCCC(=O)O)C[C@H]2C[C@H]1O", "note": "(stereo partly drawn) [Iloprost]", "values": [
      {"measurement": "RANKL", "setting": "T cells", "value": "increased"},
      {"measurement": "T cell and TNF alpha production", "setting": "T cells", "value": "reduces"},
      {"measurement": "IFN gamma production", "setting": "[1]; SSc patients", "value": "No effect"},
      {"measurement": "T regulatory cells number", "setting": "[1]; SSc patients", "value": "reduces"},
      {"measurement": "serum IL-2", "setting": "[1]; SSc patients, serum", "value": "increases"},
      {"measurement": "T regulatory cells activity", "setting": "[1]; after immune stimulation", "value": "increases"},
      {"measurement": "persistence of serum IL-2 increase after the last infusion", "setting": "[1]; after the last infusion", "value": 28, "unit": "days"},
      {"measurement": "RANKL", "setting": "[1]; in vivo", "value": "increased"},
      {"measurement": "T cell and TNF alpha production", "setting": "[1]; in vivo, SSc patients", "value": "reduces"}
    ]}
  ]
}
